Data: patent US7872052B2, “Use of heterocyclic compounds as SCCE inhibitors” (Arexis AB, priority 2003, dated 2011)

Molecular target: T1, Recombinant active human SCCE (Homo sapiens, UniProt P49862)
T1 construct: made in house; host or cells: murine C127 cells transfected with a BPV vector (murine MT promoter)
Assay: SCCE Inhibitor Test (chromogenic substrate S-2586, absorbance at 405 nm)
Assay type: biochemical
Details: for IC50: 10 min preincubation, 1 mM S-2586, 60 min, 37° C, pH 7.2; for remaining activity at 1 µM / remaining activity at 5 µM / remaining activity at 10 µM: 1 h; for remaining activity at 1 µM: 1 μM compound; for remaining activity at 5 µM: 5 μM compound
Description: Recombinant active human SCCE was produced essentially as described in WO 95/00651. The cDNA encoding human SCCE was introduced into a BPV vector under the control of the murine MT promoter and expressed in transfected C127 cells. The produced SCCE was purified and activated using immobilized bovine trypsin.
SCCE activity was determined using the chromogenic substrate S-2586 (MeO-Suc-Arg-Pro-Tyr-pNA) (Chromogenix, Mölndal, Sweden) by measurement of the change in absorbance at 405 nm essentially as described in WO 95/00651. Inhibitors were dissolved in DMSO and added to the reaction mixture (10 mM sodium phosphate, pH 7.2, 0.5 M NaCl, 2.5 μg/ml SCCE) at appropriate concentrations followed by incubation for 10 min before the start of the enzymatic reaction by subsequent addition of the substrate S-2586 to a final concentration of 1 mM. The change in absorbance at 405 nm after 60 min was recorded and used as a measure of SCCE activity. The assay temperature was 37° C. […] The IC50 values were used to identify compounds as SCCE inhibitors of the invention.

T1 sequence (P49862 30-253): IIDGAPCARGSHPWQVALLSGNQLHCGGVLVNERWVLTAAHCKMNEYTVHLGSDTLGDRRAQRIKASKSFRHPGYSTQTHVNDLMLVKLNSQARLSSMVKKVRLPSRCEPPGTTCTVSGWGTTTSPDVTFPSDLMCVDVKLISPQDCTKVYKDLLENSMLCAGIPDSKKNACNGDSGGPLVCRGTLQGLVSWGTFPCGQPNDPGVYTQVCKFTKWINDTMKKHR

Compound	IC50	remaining activity at 1 µM	remaining activity at 5 µM	% SCCE activity (10 μM compound)	remaining activity at 10 µM (10 μM compound)
CN(C)c1nc2cc(Cl)cc(Cl)c2c(=O)o1 [Compound I-7]	2 µM	–	–	7%	–
Cc1cc(-c2nc3cc(Cl)ccc3c(=O)o2)ccc1[N+](=O)[O-] [Compound I-13, 7-Chloro-2-(3-methyl-4-nitro-phenyl)-benzo[d][1,3]oxazin-4-one]	2 µM	56%	36%	–	–
COc1cccc(-c2nc3sc4c(c3c(=O)o2)CCCC4)c1 [II-20, 2-(3-Methoxy-phenyl)-5,6,7,8-tetrahydro-3-oxa-9-thia-1-aza-fluoren-4-one]	2 µM	52%	42%	–	–
Cc1nc2sc3c(c2c(=O)o1)CCCCC3 [II-22, 2-Methyl-6,7,8,9-tetrahydro-5H-3-oxa-10-thia-1-aza-benzo[a]azulen-4-one]	> 10 µM	49%	27%	–	–
O=c1oc(-c2ccccc2O)nc2ccccc12 [Compound I-10, 2-(2-Hydroxy-phenyl)-benzo[d][1,3]oxazin-4-one]	5 µM	71%	47%	–	32%
COc1cc2nc(-c3ccc(NC(C)=O)cc3)oc(=O)c2cc1OC [Compound I-14, N-[4-(6,7-Dimethoxy-4-oxo-4H-benzo[d][1,3]oxazin-2-yl)-phenyl]-acetamide]	5 µM	–	–	–	52%
O=c1oc(-c2ccc(F)cc2)nc2ccsc12 [II-8, 2-(4-fluoro-phenyl)-4H-thieno[3,2-d][1,3]oxazin-4-one]	1 µM	–	–	–	10%
CCc1ccc(-c2nc3cc(Cl)ccc3c(=O)o2)cc1 [Compound I-12, 7-Chloro-2-(4-ethyl-phenyl)benzo[d][1,3]oxazin-4-one]	2 µM	33%	15%	–	–
O=c1oc(-c2cccs2)nc2sc3c(c12)CCCC3 [II-19, 2-Thiophen-2-yl-5,6,7,8-tetrahydro-3-oxa-9-thia-1-aza-fluoren-4one]	1 µM	52%	41%	–	–
O=c1nc(-c2cccs2)oc2ccccc12 [Compound I-20, 2-Thiophen-2-yl-benzo[e][1,3]oxazin-4-one]	–	54%	16%	–	–
CC(=O)Oc1ccc(-c2nc3ccccc3c(=O)o2)cc1 [Compound I-15, Acetic acid 4-(4-oxo-4H-benzo[d][1,3]oxazin-2-yl)-phenyl ester]	5 µM	52%	22%	–	–
O=c1oc(-c2ccncc2)nc2ccccc12 [Compound I-8, 2-Pyridin-4-yl-benzo[d][1,3]oxazin-4-one]	5 µM	–	–	–	24%
O=c1nc(-c2ccco2)oc2ccccc12 [Compound I-21, 2-Furan-2-yl-benzo[e][1,3]oxazin-4-one]	–	47%	16%	–	–
CCc1cc2c(=O)oc(-c3ccc(Br)cc3)nc2s1 [II-9, 2-(4-Bromo-phenyl)-6-ethyl-thieno[2,3-d][1,3]oxazin-4-one]	1 µM	58%	37%	–	–
O=c1oc(-c2ccccc2)nc2ccccc12 [Compound I-1, 2-Phenyl-benzo[d][1,3]oxazin-4-one]	2 µM	–	–	–	27%
O=c1oc(-c2ccccc2)nc2ccsc12 [II-6, 2-phenyl-4H-thieno[3,2-d][1,3]oxazin-4-one]	1 µM	–	–	–	9%
O=c1oc(-c2ccncc2)nc2sc3c(c12)CCCCC3 [II-21, 2-Pyridin-4-yl-6,7,8,9-tetrahydro-5H-3-oxa-10-thia-1-aza-benzo[a]azulen-4-one]	2 µM	–	–	–	–
O=c1oc(-c2cccs2)nc2ccccc12 [Compound I-9, 2-Thiophen-2-yl-benzo[d][1,3]oxazin-4-one]	5 µM	–	–	–	23%
O=c1nc(-c2ccccc2Cl)oc2ccccc12 [Compound I-19, 2-(2-Chlorophenyl)-benzo[e][1,3]oxazin-4-one]	4 µM	76%	44%	–	–
O=c1oc(-c2ccccc2)nc2sc3c(c12)CCCC3 [II-17, 2-Phenyl-5,6,7,8-tetrahydro-3-oxa-9-thia-1-aza-fluoren-4-one]	0.7 µM	45%	33%	–	–

Continued, values first:

IC50	remaining activity at 1 µM	remaining activity at 5 µM	% SCCE activity (10 μM compound)	remaining activity at 10 µM (10 μM compound)	Compound
0.2 µM	19%	16%	–	–	O=c1oc(-c2ccccc2)nc2sc3c(c12)CCC3 [II-12, 6-Phenyl-2,3-dihydro-1H-5-oxa-8-thia-7-aza-cyclopenta[a]inden-4-one]
0.2 µM	8%	8%	–	–	O=c1oc(-c2ccco2)nc2sc3c(c12)CCC3 [II-11, 6-Furan-2-yl-2,3-dihydro-1H-5-oxa-8-thia-7-aza-cyclopenta[a]inden-4-one]
0.32 µM	18%	4%	–	–	O=c1nc(-c2cccs2)oc2ccc(Cl)cc12 [Compound I-17, 6-Chloro-2-thiophen-2-yl-benzo[e][1,3]oxazin-4-one]
0.3 µM	37%	14%	–	–	O=c1oc(-c2ccc(F)cc2)nc2sc3c(c12)CCC3 [II-13, 6-(4-Fluoro-phenyl)-2,3-dihydro-1H-5-oxa-8-thia-7-aza-cyclopenta[a]inden-4-one]
0.07 µM	7%	2.4%	–	–	O=c1oc(-c2ccccc2F)nc2sc3c(c12)CCCC3 [II-15, 2-(2-Fluoro-phenyl)-5,6,7,8-tetrahydro-3-oxa-9-thia-1-aza-fluoren-4-one]
0.1 µM	15%	0%	–	–	O=c1oc(-c2ccc([N+](=O)[O-])cc2Cl)nc2cc(Cl)ccc12 [Compound I-2, 7-Chloro-2-(2-chloro-4-nitro-phenyl)-benzo[d][1,3]oxazin-4-one]
0.02 µM	10%	2%	–	–	O=c1oc(-c2ccccc2Cl)nc2sc3c(c12)CCC3 [II-10, 6-(2-Chloro-phenyl)-2,3-dihydro-1H-5-oxa-8-thia-7-aza-cyclopenta[a]indene-4-one]
0.6 µM	26%	7%	–	–	O=c1nc(-c2ccco2)oc2ccc(Cl)cc12 [Compound I-18, 6-Chloro-2-furan-2-yl-benzo[e][1,3]oxazin-4-one]
0.15 µM	3%	0%	–	–	CCc1cc2c(=O)oc(-c3ccccc3C)nc2s1 [II-3, 6-Ethyl-2-o-tolyl-thieno[2,3-d][1,3]oxazin-4-one]
0.07 µM	2.7%	0%	–	–	COc1ccccc1-c1nc2sc3c(c2c(=O)o1)CCCC3 [II-16, 2-(2-Methoxy-phenyl)-5,6,7,8-tetrahydro-3-oxa-9-thia-1-aza-fluoren-4-one]
0.5 µM	–	–	–	9%	COc1cc2nc(-c3ccc([N+](=O)[O-])cc3Cl)oc(=O)c2cc1OC [Compound I-5, 2-(2-Chloro-4-nitro-phenyl)-6,7-dimethoxy-benzo[d][1,3]oxazin-4-one]
0.5 µM	–	–	–	22%	O=c1oc(-c2cc([N+](=O)[O-])ccc2Cl)nc2ccccc12 [Compound I-6, 2-(2-Chloro-5-nitro-phenyl)-benzo[d][1,3]oxazin-4-one]
0.7 µM	39%	8%	–	–	COc1cc2nc(-c3ccccc3F)oc(=O)c2cc1OC [Compound I-11, 2-(2-Fluoro-phenyl)-6,7-dimethoxy-benzo[d][1,3]oxazin-4-one]
0.3 µM	15%	8%	–	–	CCc1cc2c(=O)oc(-c3ccc(F)cc3)nc2s1 [II-4, 6-Ethyl-2-(4-fluoro-phenyl)-thieno[2,3-d][1,3]oxazin-4-one]
0.25 µM	22%	5%	–	–	O=c1oc(-c2cccs2)nc2cc(Cl)ccc12 [Compound I-4, 7-Chloro-2-thiophen-2-yl-benzo[d][1,3]oxazin-4-one]
0.05 µM	–	–	–	4%	Cc1cc2c(=O)oc(-c3cccc4ccccc34)nc2s1 [II-2, 6-Methyl-2-naphtalen-1-yl-thieno[2,3-d][1,3]oxazin-4-one]
0.17 µM	15%	–	–	3%	COc1cc2nc(-c3ccccc3Cl)oc(=O)c2cc1OC [Compound I-16, 2-(2-Chloro-phenyl)-6,7-dimethoxy-benzo[d][1,3]oxazin-4-one]
0.3 µM	37%	21%	–	–	O=c1oc(-c2cccs2)nc2sc3c(c12)CCC3 [II-14, 6-Thiophen-2-yl-2,3-dihydro-1H-5-oxo-8-thia-7-aza-cyclopenta[a]inden-4-one]
0.07 µM	0%	0%	–	–	CCc1cc2c(=O)oc(-c3ccccc3F)nc2s1 [II-1, 6-Ethyl-2-(2-fluoro-phenyl)-thieno[2,3-d][1,3]oxazin-4-one]
